Data reported in patent US6545006B1, “Process for obtaining L-dihydroorotic acid and use thereof” (Aventis Pharma Deutschland GmbH, priority 1997, dated 2003).

How the values were obtained:
Format in all cases: physicochemical
[1] = Stability of L-DHO for 18 h at 14° C. in Jurkat cell lysates; settings: for Residue (%) / concentration 1 20 μg/ml / Concentration 2 100 μg/ml: Jurkat cells, 14° C.
Description: (§1) In order to simulate the conditions of the samples when they are waiting in the autosampler for the actual analysis the stability during 18 h at 14° C. was determined. For that reason the cell lysates were spiked and then treated with 30 μl 6 M KOH/100 μl lysate before the start of the analysis. Correspondingly, the serum samples were spiked and then deproteinized as described in 1.5.2. […] In serum samples the analyte is stable under these conditions. For these reasons only so many HPLC samples were prepared that the maximal length of stay in the autosampler was less than 18 h.

[2] = Stability of L-DHO standard stock solution; settings: 1 mg L-DHO in 1 ml water, frozen at −20° C.
Description: (§2) A standard stock solution was prepared by dissolving 1 mg L-DHO in 1 ml water. Aliquots of 400 μl were frozen at −20° C. Stability of these solutions was guaranteed for at least 4 weeks. Defined amounts of the stock solution were added to the cell lysates and to human or rat serum and assayed to evaluate the linearity between the increase of the signal and the spiked L-DHO concentration. The precision and the accuracy of the method were investigated by using quality control (QC) samples with an L-DHO content in the low, the middle and the high concentration range of the signal/concentration linearity curve.

[3] = Stability of L-DHO in human serum at −20° C.; settings: for Residue (%) / concentration 1 5 μg/ml / Concentration 2 20 μg/ml: Human serum
Description: as §2
(§3) In order to reduce the protein content […] serum were added to a Microcon filter (10 000 D, model 10, code 42407, Amicon) and centrifuged for 30 min at 13 000 rounds per minute (rpm). The flow through consisted of about 150 μl and contains the analyte L-DHO. From this liquid 20 μl were used for HPLC analysis.
(§4) L-DHO was stable under the above mentioned conditions in Jurkat cells over a period of at least 4 weeks. […] For these reasons it can be stated only that in rat and human serum samples L-DHO is definitely stable only for at least 1 week.

[4] = Stability of L-DHO for 18 h at 14° C. in rat serum; settings: for concentration 1 5 μg/ml / Residue (%) / Concentration 2 20 μg/ml: Rat serum, 14° C.
Description: as §1

[5] = Stability of L-DHO for 18 h at 14° C. in human serum; settings: for Residue (%) / concentration 1 5 μg/ml / Concentration 2 20 μg/ml: Human serum, 14° C.
Description: as §1

[6] = Stability of L-DHO in Jurkat cell lysates at −20° C.; settings: Jurkat cells
Description: as §2
Cells were suspended in a defined medium volume and cell density of samples was determined via vital microscopy using Eosin. About 10×10^6 cells were removed, pelleted by 5 minute-centrifugation at 350×g and the supernatant was discarded. Lysis of the cells was done by resuspending the cell pellet in 500 μl 1.2 M HClO4. This mixture was transferred in 2.0 ml Eppendorf safe-lock caps and the protein was precipitated by 2 minutes high speed centrifugation. The supernatant was completely removed, transferred in glass vials and after addition of 500 μl chloroform thoroughly mixed by 2 minutes vortexing. Cellular lipids were extracted by chloroform following 10 minutes centrifugation (1502 g) at 10° C. The purified supernatant was collected in 2 ml Eppendorf-caps and stored at −20° C. until further used. For the HPLC analysis 100 μl of this supernatant were neutralized with 30 μl 6 M KOH. After shaking for about 5 sec the samples were stored on ice for 30 min. Thereafter they were centrifuged for 5 min at 15 000 rpm. From the clear supernatant 20 μl were used for the HPLC analysis.
as §4

[7] = Stability of L-DHO in rat serum at −20° C.; settings: for Residue (%) / concentration 1 5 μg/ml / Concentration 2 20 μg/ml: Rat serum
Description: as §2, §3, §4

O=C1C[C@@H](C(=O)O)NC(=O)N1 [L-DHO, L-dihydroorotic acid]
Residue (%) ([1]; 20 μg/ml, 0 h): 100%
concentration 1 20 μg/ml ([1]; 20 μg/ml, 0 h): 19960 ng/mL
Residue (%) ([1]; 20 μg/ml, 18 h): 93.2%
concentration 1 20 μg/ml ([1]; 20 μg/ml, 18 h): 18600 ng/mL
Concentration 2 100 μg/ml ([1]; 100 μg/ml, 0 h): 100020 ng/mL
Residue (%) ([1]; 100 μg/ml, 0 h): 100%
Concentration 2 100 μg/ml ([1]; 100 μg/ml, 18 h): 97430 ng/mL
Residue (%) ([1]; 100 μg/ml, 18 h): 97.4%
reduction of L-DHO content ([1]; cells, 18 h at 14° C.): ≤ 7%
Stability of standard stock solution [2]: at least 4 weeks
Residue (%) ([3]; 5 μg/ml, Time 0 (h)): 100%
concentration 1 5 μg/ml ([3]; 5 μg/ml, Time 0 (h)): 4670 ng/mL
Residue (%) ([3]; 5 μg/ml, Time 8 (h)): 103.0%
concentration 1 5 μg/ml ([3]; 5 μg/ml, Time 8 (h)): 4810 ng/mL
Residue (%) ([3]; 5 μg/ml, Time 65 (h)): 104.3%
concentration 1 5 μg/ml ([3]; 5 μg/ml, Time 65 (h)): 4870 ng/mL
Concentration 2 20 μg/ml ([3]; 20 μg/ml, Time 0 (h)): 20220 ng/mL
Residue (%) ([3]; 20 μg/ml, Time 0 (h)): 100%
Concentration 2 20 μg/ml ([3]; 20 μg/ml, Time 8 (h)): 20380 ng/mL
Residue (%) ([3]; 20 μg/ml, Time 8 (h)): 100.8%
Concentration 2 20 μg/ml ([3]; 20 μg/ml, Time 65 (h)): 23200 ng/mL
Residue (%) ([3]; 20 μg/ml, Time 65 (h)): 114.7%
period over which L-DHO is definitely stable ([3]; human serum): at least 1 week
concentration 1 5 μg/ml ([4]; 5 μg/ml, 0 h): 4610 ng/mL
Residue (%) ([4]; 5 μg/ml, 18 h): 107.6%
concentration 1 5 μg/ml ([4]; 5 μg/ml, 18 h): 4960 ng/mL
Concentration 2 20 μg/ml ([4]; 20 μg/ml, 0 h): 19990 ng/mL
Residue (%) ([4]; 20 μg/ml, 0 h): 100%
Concentration 2 20 μg/ml ([4]; 20 μg/ml, 18 h): 20530 ng/mL
Residue (%) ([4]; 20 μg/ml, 18 h): 102.7%
stability of the analyte in serum samples ([4]; rat serum, 18 h at 14° C.): stable
Residue (%) ([5]; 5 μg/ml, 0 h): 100%
concentration 1 5 μg/ml ([5]; 5 μg/ml, 0 h): 3340 ng/mL
Residue (%) ([5]; 5 μg/ml, 18 h): 100.9%
concentration 1 5 μg/ml ([5]; 5 μg/ml, 18 h): 3370 ng/mL
Concentration 2 20 μg/ml ([5]; 20 μg/ml, 0 h): 18780 ng/mL
Residue (%) ([5]; 20 μg/ml, 0 h): 100%
Concentration 2 20 μg/ml ([5]; 20 μg/ml, 18 h): 22090 ng/mL
Residue (%) ([5]; 20 μg/ml, 18 h): 117.6%
stability of the analyte in serum samples ([5]; human serum, 18 h at 14° C.): stable
Residue (%) ([6]; 20 μg/ml, 0 days): 100%
concentration 1 20 μg/ml ([6]; 20 μg/ml, 0 days): 19340 ng/mL
Residue (%) ([6]; 20 μg/ml, 7 days): 99.7%
concentration 1 20 μg/ml ([6]; 20 μg/ml, 7 days): 19280 ng/mL
Residue (%) ([6]; 20 μg/ml, 29 days): 103.3%
concentration 1 20 μg/ml ([6]; 20 μg/ml, 29 days): 19980 ng/mL
Concentration 2 100 μg/ml ([6]; 100 μg/ml, 0 days): 100050 ng/mL
Residue (%) ([6]; 100 μg/ml, 0 days): 100%
Concentration 2 100 μg/ml ([6]; 100 μg/ml, 7 days): 99090 ng/mL
Residue (%) ([6]; 100 μg/ml, 7 days): 99.0%
Concentration 2 100 μg/ml ([6]; 100 μg/ml, 14 days): 115320 ng/mL
Residue (%) ([6]; 100 μg/ml, 14 days): 115.3%
Concentration 2 100 μg/ml ([6]; 100 μg/ml, 29 days): 99350 ng/mL
Residue (%) ([6]; 100 μg/ml, 29 days): 99.3%
period over which L-DHO was stable ([6]; 2-3 freezing/thawing cycles): at least 4 weeks
Residue (%) ([7]; 5 μg/ml, Time 0 (h)): 100%
concentration 1 5 μg/ml ([7]; 5 μg/ml, Time 0 (h)): 4300 ng/mL
Residue (%) ([7]; 5 μg/ml, Time 7 (h)): 105.1%
concentration 1 5 μg/ml ([7]; 5 μg/ml, Time 7 (h)): 4520 ng/mL
Residue (%) ([7]; 5 μg/ml, Time 14 (h)): 111.9%
concentration 1 5 μg/ml ([7]; 5 μg/ml, Time 14 (h)): 4810 ng/mL
Residue (%) ([7]; 5 μg/ml, Time 21 (h)): 129.1%
concentration 1 5 μg/ml ([7]; 5 μg/ml, Time 21 (h)): 5550 ng/mL
Concentration 2 20 μg/ml ([7]; 20 μg/ml, Time 0 (h)): 19940 ng/mL
Residue (%) ([7]; 20 μg/ml, Time 0 (h)): 100%
Concentration 2 20 μg/ml ([7]; 20 μg/ml, Time 7 (h)): 19620 ng/mL
Residue (%) ([7]; 20 μg/ml, Time 7 (h)): 98.4%
Concentration 2 20 μg/ml ([7]; 20 μg/ml, Time 14 (h)): 20930 ng/mL
Residue (%) ([7]; 20 μg/ml, Time 14 (h)): 105.0%
Concentration 2 20 μg/ml ([7]; 20 μg/ml, Time 21 (h)): 22330 ng/mL
Residue (%) ([7]; 20 μg/ml, Time 21 (h)): 112.2%
period over which L-DHO is definitely stable ([7]; rat serum): at least 1 week
